Reference: patent US20240407371A1, “METHOD FOR THE KILLING, INACTIVATING, OR INHIBITING OF HARMFUL BLUE-GREEN ALGAE OR ALGAE CAPABLE OF CAUSING HARMFUL ALGAL BLOOM (HAB)” (priority 2021, published 2024)

Tested on: Saprolegnia diclina
Test: Atlantic salmon eggs challenged with Saprolegnia diclina trojan eggs, immersion baths
Assay type: in vivo, Atlantic salmon (Salmo solar L.) eggs
Settings: 1665 ppm, 15 min bath daily

C=O [Formalin]
signs of saprolegniosis: did not suffer any sign of saprolegniosis
Average Number of Eggs Entangled (Treatment E, 10 days): 0.00
Average Percent Eggs Entangled (Treatment E, 10 days): 0.00
